This note sets out measurements from ChEMBL document CHEMBL3797068, “eCF309: a potent, selective and cell-permeable mTOR inhibitor” (Medchemcomm, 2016).

Molecules are shown by their SMILES. Active and inactive are the calls of the source. The rule behind the calls is not given here.

The subject of test [1] is MCF7. Put plainly: Cytotoxicity against human MCF7 cells after 5 days by Presto blue reagent-based fluorescence analysis. The test is classed as functional, cell-based. As to conditions: for EC50: MCF7, 120 h.
Test [2] deals with MCF7. As to the kind of experiment: Cytotoxicity against human MCF7 cells assessed as cell viability at 1000 nM after 5 days by Presto blue reagent-based spectrofluorometric analysis. As to conditions: MCF7, 120 h, read-out: Activity. The test is classed as functional.
Test [3] deals with Tyrosine-protein kinase Fyn (Homo sapiens, UniProt P06241). As to the kind of experiment: Inhibition of human FYN using (poly [Glu, Tyr] 4:1) as substrate assessed as incorporation of 33P in substrate by [gamma33P] ATP-based kinase assay.
In test [4] the target is Proto-oncogene tyrosine-protein kinase receptor Ret (Homo sapiens, UniProt P07949). As to the kind of experiment: Inhibition of human RET using (poly [Glu, Tyr] 4:1) as substrate assessed as incorporation of 33P in substrate by [gamma33P] ATP-based kinase assay.
Test [5] concerns the target T1, Phosphatidylinositol 4,5-bisphosphate 3-kinase catalytic subunit alpha isoform (Homo sapiens, UniProt P42336). Put plainly: Inhibition of PI3Kalpha (unknown origin) using (poly [Glu, Tyr] 4:1) as substrate assessed as incorporation of 33P in substrate by [gamma33P] ATP-based kinase assay.
Test [6] concerns the target Mast/stem cell growth factor receptor Kit (Homo sapiens, UniProt P10721). As to the kind of experiment: Inhibition of human KIT using (poly [Glu, Tyr] 4:1) as substrate assessed as incorporation of 33P in substrate by [gamma33P] ATP-based kinase assay.
Test [7] addresses Tyrosine-protein kinase Yes (Homo sapiens, UniProt P07947). As to the kind of experiment: Inhibition of human YES using (poly [Glu, Tyr] 4:1) as substrate assessed as incorporation of 33P in substrate by [gamma33P] ATP-based kinase assay.
Test [8] deals with Tyrosine-protein kinase Blk (Homo sapiens, UniProt P51451). Put plainly: Inhibition of human BLK using (poly [Glu, Tyr] 4:1) as substrate assessed as incorporation of 33P in substrate by [gamma33P] ATP-based kinase assay.
The target in test [9] is Platelet-derived growth factor receptor alpha (Homo sapiens, UniProt P16234). As to the kind of experiment: Inhibition of human PDGFRalpha using (poly [Glu, Tyr] 4:1) as substrate assessed as incorporation of 33P in substrate by [gamma33P] ATP-based kinase assay.
The target of test [10] is T2, Phosphatidylinositol 4,5-bisphosphate 3-kinase catalytic subunit gamma isoform (Homo sapiens, UniProt P48736). Put plainly: Inhibition of PI3Kgamma (unknown origin) using (poly [Glu, Tyr] 4:1) as substrate assessed as incorporation of 33P in substrate by [gamma33P] ATP-based kinase assay.
For test [11], the target named is Tyrosine-protein kinase ABL1 (Homo sapiens, UniProt P00519). Put plainly: Inhibition of human ABL using (poly [Glu, Tyr] 4:1) as substrate assessed as incorporation of 33P in substrate by [gamma33P] ATP-based kinase assay.
Test [12] deals with T3, Serine/threonine-protein kinase mTOR (Homo sapiens, UniProt P42345). As to the kind of experiment: Inhibition of human mTOR using (poly [Glu, Tyr] 4:1) as substrate assessed as incorporation of 33P in substrate by [gamma33P] ATP-based kinase assay.
Test [13] has as its target Proto-oncogene tyrosine-protein kinase Src (Homo sapiens, UniProt P12931). Put plainly: Inhibition of human SRC using (poly [Glu, Tyr] 4:1) as substrate assessed as incorporation of 33P in substrate by [gamma33P] ATP-based kinase assay.
Test [14] has as its target T4, Phosphatidylinositol 4,5-bisphosphate 3-kinase catalytic subunit delta isoform (Homo sapiens, UniProt O00329).
T4 sequence (O00329 whole entry): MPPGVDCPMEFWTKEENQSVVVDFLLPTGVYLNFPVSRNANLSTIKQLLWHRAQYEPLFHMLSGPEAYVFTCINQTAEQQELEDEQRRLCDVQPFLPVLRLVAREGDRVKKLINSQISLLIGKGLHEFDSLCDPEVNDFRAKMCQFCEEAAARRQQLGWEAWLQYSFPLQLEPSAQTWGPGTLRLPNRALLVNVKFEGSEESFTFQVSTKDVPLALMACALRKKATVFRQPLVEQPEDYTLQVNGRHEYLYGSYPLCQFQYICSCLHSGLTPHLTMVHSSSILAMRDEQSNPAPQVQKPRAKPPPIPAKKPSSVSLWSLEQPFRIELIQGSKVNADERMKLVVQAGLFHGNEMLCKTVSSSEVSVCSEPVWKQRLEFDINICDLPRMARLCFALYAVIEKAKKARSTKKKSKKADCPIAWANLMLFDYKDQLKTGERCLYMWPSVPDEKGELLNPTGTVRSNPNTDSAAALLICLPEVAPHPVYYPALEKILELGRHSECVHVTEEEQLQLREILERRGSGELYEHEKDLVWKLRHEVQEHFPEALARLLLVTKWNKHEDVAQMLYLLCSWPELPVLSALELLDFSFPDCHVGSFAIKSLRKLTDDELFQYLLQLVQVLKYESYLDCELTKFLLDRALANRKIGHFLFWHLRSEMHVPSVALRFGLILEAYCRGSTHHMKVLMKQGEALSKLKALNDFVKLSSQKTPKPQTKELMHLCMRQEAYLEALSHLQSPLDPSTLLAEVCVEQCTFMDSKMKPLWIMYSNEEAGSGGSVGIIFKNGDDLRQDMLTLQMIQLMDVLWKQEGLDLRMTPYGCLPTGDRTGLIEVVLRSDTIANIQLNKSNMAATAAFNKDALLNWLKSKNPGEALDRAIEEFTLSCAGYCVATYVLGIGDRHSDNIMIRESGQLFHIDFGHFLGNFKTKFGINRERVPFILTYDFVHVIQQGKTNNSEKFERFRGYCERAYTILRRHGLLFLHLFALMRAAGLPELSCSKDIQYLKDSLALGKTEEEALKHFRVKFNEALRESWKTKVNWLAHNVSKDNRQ
As to the kind of experiment: Inhibition of PI3Kdelta (unknown origin) using (poly [Glu, Tyr] 4:1) as substrate assessed as incorporation of 33P in substrate by [gamma33P] ATP-based kinase assay.

Test [15] has as its target T5, Phosphatidylinositol 4,5-bisphosphate 3-kinase catalytic subunit beta isoform (Homo sapiens, UniProt P42338). Put plainly: Inhibition of PI3Kbeta (unknown origin) using (poly [Glu, Tyr] 4:1) as substrate assessed as incorporation of 33P in substrate by [gamma33P] ATP-based kinase assay.
The test system of test [16] is MDA-MB-231. Put plainly: Cell cycle arrest in human MDA-MB-231 cells assessed as increase in G0/G1 population after 24 hrs by Hoechst 33342 staining-based fluorescence analysis. It counts as functional.
Test [17] has as its target T2, Phosphatidylinositol 4,5-bisphosphate 3-kinase catalytic subunit gamma isoform. Put plainly: Inhibition of PI3Kgamma (unknown origin) using PIP2 as substrate by HTRF assay. In general terms: Time-resolved FRET reads energy transfer from a long-lived donor to a nearby acceptor.
In test [18] the target is DNA-dependent protein kinase catalytic subunit (Homo sapiens, UniProt P78527). As to the kind of experiment: Inhibition of human DNA-PK using (poly [Glu, Tyr] 4:1) as substrate assessed as incorporation of 33P in substrate by [gamma33P] ATP-based kinase assay.
Test [19] concerns MCF7. As to the kind of experiment: Cell cycle arrest in human MCF7 cells assessed as increase in G0/G1 population after 24 hrs by Hoechst 33342 staining-based fluorescence analysis. It counts as functional.
Test [20] is described as follows: Cytotoxicity against human PC3 cells after 5 days by Presto blue reagent-based spectrofluorometric analysis. It counts as functional, cell-based. As to conditions: PC-3, 120 h.
The target of test [21] is Epithelial discoidin domain-containing receptor 1 (Homo sapiens, UniProt Q08345). As to the kind of experiment: Inhibition of human DDR1 using (poly [Glu, Tyr] 4:1) as substrate assessed as incorporation of 33P in substrate by [gamma33P] ATP-based kinase assay.
The target in test [22] is T1, Phosphatidylinositol 4,5-bisphosphate 3-kinase catalytic subunit alpha isoform. As to the kind of experiment: Inhibition of PI3Kalpha (unknown origin) using PIP2 as substrate by HTRF assay.
In test [23] the test system is MDA-MB-231. Put plainly: Cytotoxicity against human MDA-MB-231 cells after 5 days by Presto blue reagent-based spectrofluorometric analysis. The test is classed as functional, cell-based. As to conditions: MDA-MB-231, 120 h.
In test [24] the target is T3, Serine/threonine-protein kinase mTOR. Put plainly: Inhibition of recombinant human mTOR by LanthaScreen Kinase assay.
The target of test [25] is T4, Phosphatidylinositol 4,5-bisphosphate 3-kinase catalytic subunit delta isoform. As to the kind of experiment: Inhibition of PI3Kdelta (unknown origin) using PIP2 as substrate by HTRF assay.
For test [26], the target named is T5, Phosphatidylinositol 4,5-bisphosphate 3-kinase catalytic subunit beta isoform. Put plainly: Inhibition of PI3Kbeta (unknown origin) using PIP2 as substrate by HTRF assay.
Test [27] can be described thus: Cell cycle arrest in human PC3 cells assessed as increase in G0/G1 population after 24 hrs by Hoechst 33342 staining-based fluorescence analysis. It counts as functional. As to conditions: PC-3.
Test [28] has as its system MCF7. Put plainly: Cytotoxicity against human MCF7 cells at 0.3 to 1000 nM after 5 days by Presto blue reagent-based spectrofluorometric analysis. The test is classed as functional, cell-based.

T2 sequence (P48736 whole entry, canonical isoform): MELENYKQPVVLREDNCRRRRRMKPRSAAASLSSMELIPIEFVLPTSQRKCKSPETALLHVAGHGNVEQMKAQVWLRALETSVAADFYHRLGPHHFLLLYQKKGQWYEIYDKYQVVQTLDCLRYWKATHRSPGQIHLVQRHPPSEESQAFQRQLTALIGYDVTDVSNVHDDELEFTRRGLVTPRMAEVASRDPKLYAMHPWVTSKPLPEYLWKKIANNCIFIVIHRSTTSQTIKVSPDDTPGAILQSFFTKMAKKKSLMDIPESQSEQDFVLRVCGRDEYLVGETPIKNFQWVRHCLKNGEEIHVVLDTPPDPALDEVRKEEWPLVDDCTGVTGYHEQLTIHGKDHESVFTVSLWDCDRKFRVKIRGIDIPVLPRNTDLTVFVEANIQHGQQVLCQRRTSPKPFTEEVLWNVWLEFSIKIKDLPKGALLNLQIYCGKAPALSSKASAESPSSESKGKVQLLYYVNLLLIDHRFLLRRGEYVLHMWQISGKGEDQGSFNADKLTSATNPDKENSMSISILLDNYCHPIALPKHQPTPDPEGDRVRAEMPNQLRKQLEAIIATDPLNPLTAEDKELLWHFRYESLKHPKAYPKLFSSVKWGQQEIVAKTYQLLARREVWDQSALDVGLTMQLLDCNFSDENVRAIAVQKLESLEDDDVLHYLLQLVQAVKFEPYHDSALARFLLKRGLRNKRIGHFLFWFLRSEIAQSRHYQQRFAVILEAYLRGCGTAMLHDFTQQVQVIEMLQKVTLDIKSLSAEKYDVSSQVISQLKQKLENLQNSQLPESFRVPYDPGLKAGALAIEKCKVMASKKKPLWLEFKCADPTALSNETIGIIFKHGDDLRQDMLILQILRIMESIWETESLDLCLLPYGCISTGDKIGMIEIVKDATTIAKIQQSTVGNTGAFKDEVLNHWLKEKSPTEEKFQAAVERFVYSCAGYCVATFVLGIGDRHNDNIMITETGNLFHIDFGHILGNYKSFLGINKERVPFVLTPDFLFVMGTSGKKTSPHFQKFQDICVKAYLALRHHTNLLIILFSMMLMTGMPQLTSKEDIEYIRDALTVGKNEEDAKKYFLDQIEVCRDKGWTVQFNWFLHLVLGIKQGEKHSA
Chain of Tyrosine-protein kinase Blk (P51451 whole entry): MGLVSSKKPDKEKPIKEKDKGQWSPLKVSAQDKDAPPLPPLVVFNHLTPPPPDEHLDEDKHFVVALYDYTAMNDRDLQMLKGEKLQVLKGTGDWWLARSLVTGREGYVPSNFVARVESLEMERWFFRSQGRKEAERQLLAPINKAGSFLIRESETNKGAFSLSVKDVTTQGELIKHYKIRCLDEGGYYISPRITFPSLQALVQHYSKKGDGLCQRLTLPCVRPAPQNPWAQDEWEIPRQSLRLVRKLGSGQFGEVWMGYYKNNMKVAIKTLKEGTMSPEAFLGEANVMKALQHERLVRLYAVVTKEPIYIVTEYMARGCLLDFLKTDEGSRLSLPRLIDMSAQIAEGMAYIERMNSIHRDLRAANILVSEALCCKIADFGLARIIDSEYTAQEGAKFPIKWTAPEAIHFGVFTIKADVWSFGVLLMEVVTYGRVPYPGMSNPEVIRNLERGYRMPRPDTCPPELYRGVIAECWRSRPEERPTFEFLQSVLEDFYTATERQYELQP
T5 sequence (P42338 whole entry, canonical isoform): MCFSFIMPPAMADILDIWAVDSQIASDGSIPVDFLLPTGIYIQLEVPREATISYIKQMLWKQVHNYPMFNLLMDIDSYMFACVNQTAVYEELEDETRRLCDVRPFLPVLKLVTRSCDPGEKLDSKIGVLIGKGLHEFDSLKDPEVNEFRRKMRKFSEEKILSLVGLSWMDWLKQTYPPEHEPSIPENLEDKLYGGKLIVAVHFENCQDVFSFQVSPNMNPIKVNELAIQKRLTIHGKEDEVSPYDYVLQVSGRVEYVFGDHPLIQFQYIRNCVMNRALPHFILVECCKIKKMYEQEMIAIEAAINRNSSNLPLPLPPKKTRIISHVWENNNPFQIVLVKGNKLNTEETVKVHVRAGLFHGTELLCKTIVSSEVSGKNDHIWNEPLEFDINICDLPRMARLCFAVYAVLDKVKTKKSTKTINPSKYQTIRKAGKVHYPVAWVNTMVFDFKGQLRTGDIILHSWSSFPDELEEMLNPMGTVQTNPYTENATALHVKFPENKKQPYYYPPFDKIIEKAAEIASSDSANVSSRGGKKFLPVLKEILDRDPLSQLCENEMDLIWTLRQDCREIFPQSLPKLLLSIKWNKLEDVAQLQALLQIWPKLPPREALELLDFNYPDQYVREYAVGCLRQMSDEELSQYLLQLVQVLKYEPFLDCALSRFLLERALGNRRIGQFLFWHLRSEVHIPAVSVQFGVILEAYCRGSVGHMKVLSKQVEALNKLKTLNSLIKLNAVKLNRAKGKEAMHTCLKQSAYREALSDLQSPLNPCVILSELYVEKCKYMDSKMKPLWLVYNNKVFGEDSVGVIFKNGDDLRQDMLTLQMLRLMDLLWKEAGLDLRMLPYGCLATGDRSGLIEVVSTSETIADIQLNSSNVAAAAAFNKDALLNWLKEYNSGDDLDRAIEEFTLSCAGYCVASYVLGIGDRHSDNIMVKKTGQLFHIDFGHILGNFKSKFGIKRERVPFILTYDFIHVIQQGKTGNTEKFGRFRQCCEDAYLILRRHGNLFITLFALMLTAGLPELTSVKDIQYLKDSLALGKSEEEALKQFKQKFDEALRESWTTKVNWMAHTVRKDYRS
Chain of Platelet-derived growth factor receptor alpha (P16234 whole entry, canonical isoform): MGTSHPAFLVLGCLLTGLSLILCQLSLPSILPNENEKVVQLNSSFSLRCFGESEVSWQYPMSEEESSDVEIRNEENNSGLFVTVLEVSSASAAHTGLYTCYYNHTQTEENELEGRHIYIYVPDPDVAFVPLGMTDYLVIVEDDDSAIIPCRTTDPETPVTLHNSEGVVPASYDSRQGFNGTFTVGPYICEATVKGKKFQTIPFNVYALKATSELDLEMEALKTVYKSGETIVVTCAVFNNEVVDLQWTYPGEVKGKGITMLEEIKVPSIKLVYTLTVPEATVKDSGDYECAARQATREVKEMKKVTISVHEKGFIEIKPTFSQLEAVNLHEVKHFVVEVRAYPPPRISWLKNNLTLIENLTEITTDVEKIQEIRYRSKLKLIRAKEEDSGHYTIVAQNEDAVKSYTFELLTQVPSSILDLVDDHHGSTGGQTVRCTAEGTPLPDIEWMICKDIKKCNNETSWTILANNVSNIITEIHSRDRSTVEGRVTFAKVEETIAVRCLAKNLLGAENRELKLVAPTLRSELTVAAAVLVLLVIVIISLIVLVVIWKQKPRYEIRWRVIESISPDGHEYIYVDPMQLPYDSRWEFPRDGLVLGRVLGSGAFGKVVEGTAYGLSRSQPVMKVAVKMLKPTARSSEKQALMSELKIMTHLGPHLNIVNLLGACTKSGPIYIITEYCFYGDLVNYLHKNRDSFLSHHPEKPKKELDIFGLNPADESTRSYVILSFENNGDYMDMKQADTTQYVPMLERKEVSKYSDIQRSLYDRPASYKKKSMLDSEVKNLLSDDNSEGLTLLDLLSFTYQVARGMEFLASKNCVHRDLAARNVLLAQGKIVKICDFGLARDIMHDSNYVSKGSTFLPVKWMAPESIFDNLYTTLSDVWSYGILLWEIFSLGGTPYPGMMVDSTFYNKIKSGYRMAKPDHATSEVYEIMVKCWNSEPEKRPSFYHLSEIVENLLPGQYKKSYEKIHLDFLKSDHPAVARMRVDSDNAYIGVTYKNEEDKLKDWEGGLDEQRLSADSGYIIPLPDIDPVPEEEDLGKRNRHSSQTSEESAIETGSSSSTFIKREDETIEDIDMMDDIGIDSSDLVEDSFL
Chain of Mast/stem cell growth factor receptor Kit (P10721 whole entry): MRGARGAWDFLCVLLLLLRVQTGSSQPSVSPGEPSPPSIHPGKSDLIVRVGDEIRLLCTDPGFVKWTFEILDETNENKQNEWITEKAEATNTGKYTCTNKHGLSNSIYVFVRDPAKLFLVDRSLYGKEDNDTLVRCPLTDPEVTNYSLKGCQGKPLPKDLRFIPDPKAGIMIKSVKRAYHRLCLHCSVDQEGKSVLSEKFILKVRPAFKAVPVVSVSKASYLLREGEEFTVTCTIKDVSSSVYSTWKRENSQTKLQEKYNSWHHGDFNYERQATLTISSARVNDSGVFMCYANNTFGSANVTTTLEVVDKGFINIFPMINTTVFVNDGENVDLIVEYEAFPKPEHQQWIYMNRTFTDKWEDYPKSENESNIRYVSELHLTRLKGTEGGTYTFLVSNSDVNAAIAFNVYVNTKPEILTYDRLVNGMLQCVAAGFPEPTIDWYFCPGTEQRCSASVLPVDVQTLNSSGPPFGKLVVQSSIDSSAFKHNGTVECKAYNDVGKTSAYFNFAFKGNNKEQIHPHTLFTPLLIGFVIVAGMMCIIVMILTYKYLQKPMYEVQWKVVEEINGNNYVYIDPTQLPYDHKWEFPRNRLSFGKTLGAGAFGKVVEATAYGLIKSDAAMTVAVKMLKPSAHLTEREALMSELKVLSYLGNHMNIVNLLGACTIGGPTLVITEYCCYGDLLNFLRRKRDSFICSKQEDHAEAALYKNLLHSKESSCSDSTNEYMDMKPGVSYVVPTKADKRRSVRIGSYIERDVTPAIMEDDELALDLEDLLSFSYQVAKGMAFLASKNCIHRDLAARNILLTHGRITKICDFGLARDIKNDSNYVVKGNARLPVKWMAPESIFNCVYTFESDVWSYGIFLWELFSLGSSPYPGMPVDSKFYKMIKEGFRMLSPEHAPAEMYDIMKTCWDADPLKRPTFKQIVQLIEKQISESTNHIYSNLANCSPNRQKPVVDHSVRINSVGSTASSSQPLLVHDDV

`CO[C@H]1C[C@@H]2CC[C@@H](C)[C@@](O)(O2)C(=O)C(=O)N2CCCC[C@H]2C(=O)O[C@H]([C@H](C)C[C@@H]2CC[C@@H](OCCO)[C@H](OC)C2)CC(=O)[C@H](C)/C=C(\C)[C@@H](O)[C@@H](OC)C(=O)[C@H](C)C[C@H](C)/C=C/C=C/C=C/1C` [EVEROLIMUS] came in with an EC50 with MCF7 [1] of less than 1 nM. The viability at 1 µM in the test with MCF7 [2] is 30%.
Take `Nc1nc2cc(-c3nn(CC4OCCO4)c4ncnc(N)c34)ccc2o1`: the IC50 in test [3] was greater than 100000 nM; in test [4], greater than 100000 nM; in test [5] it was 115 nM; in [6], greater than 100000 nM; in [7], greater than 100000 nM; in test [8] it was greater than 100000 nM. Further, the IC50 in test [9] was greater than 100000 nM; in test [10], 302 nM; in test [11] it was 8630 nM; in [12], 59 nM; in test [13], greater than 100000 nM; in [14] it was 271 nM. In test [15], the IC50 was 3850 nM. In the test on MCF7 [1], this compound registered a concentration for a half-maximal effect (EC50) of 7.6 nM.
Regarding `CCOC(Cn1nc(-c2cnc3[nH]ccc3c2)c2c(N)ncnc21)OCC`, the IC50 in test [6], in test [8] and in test [9] was greater than 100000 nM throughout. Moreover, in the test with MCF7 [1], the outcome was Active.
`COC(Cn1nc(-c2ccc3oc(N)nc3c2)c2c(N)ncnc21)OC`: the 50% inhibitory concentration (IC50) in test [3] was greater than 100000 nM; in [4] it was greater than 100000 nM; in test [5], 300 nM; in test [6] it was greater than 100000 nM; in test [7], greater than 100000 nM; in test [8] it was greater than 100000 nM. Also, the IC50 in [9] was greater than 100000 nM; in [10] it was 99 nM; in test [11], 9920 nM; in test [12] it was 25 nM; in [13], greater than 100000 nM; in test [14], 505 nM. Also, the IC50 in [15] worked out at 5600 nM. This compound also yielded an EC50 with MCF7 [1] of 6.7 nM.
Turning to `Nc1nc2cc(-c3nn(CC4CCCO4)c4ncnc(N)c34)ccc2o1` (stereo unspecified), the outcome (in the test on MDA-MB-231 [16]; with MCF7 [19]; in test [27]) was Active. For the same compound, the half-maximal inhibitory concentration (IC50) in [17] amounted to 77 nM; in test [18] it was 48 nM; in test [21], 137 nM; in [22], 44 nM; in test [24], 5 nM; in [25], 149 nM. In addition, 1120 nM corresponded to half-maximal inhibition in test [26] (IC50). The EC50 in [20] amounted to 51 nM; with MDA-MB-231 [23], 113 nM; in the test on MCF7 [1], 8 nM.
For `COC(Cn1nc(-c2cnc3[nH]ccc3c2)c2c(N)ncnc21)OC`, in the test on MCF7 [1], the outcome was Active.
For `CO[C@H]1C[C@@H]2CC[C@@H](C)[C@@](O)(O2)C(=O)C(=O)N2CCCC[C@H]2C(=O)O[C@H]([C@H](C)C[C@@H]2CC[C@@H](O)[C@H](OC)C2)CC(=O)[C@H](C)/C=C(\C)[C@@H](O)[C@@H](OC)C(=O)[C@H](C)C[C@H](C)/C=C/C=C/C=C/1C` [SIROLIMUS], the EC50 in the test with MCF7 [1] is less than 1 nM. The viability at 1 µM in the test with MCF7 [2] was 30%.
With `Nc1nc2cc(-c3nn(CC4CCCC4)c4ncnc(N)c34)ccc2o1`, the outcome (in the test on MDA-MB-231 [16]; in the test on MCF7 [19]; in test [27]) was Active. Also, the IC50 in [17] came to 5 nM; in test [18] it was 3 nM; in test [21], 4.7 nM; in test [22] it was 3.5 nM; in test [24], 1.8 nM; in test [25] it was 7.3 nM. In addition, 89 nM corresponded to half-maximal inhibition in test [26] (IC50). For the same compound, the concentration giving a half-maximal response (EC50) in [20] was 4 nM; in the test with MDA-MB-231 [23], 12 nM; in the test with MCF7 [1], 1.7 nM.
With `Nc1nc2cc(-c3nn(CC=O)c4ncnc(N)c34)ccc2o1`, the outcome in the test with MCF7 [28] was inactive.
Regarding `Nc1ncnc2c1c(-c1cnc3[nH]ccc3c1)nn2CC1OCCO1`, the outcome in the test on MCF7 [1] was Active.
The same measure, in the same setting: the entry for `CNC(=O)c1cccc(-c2ccc3c(N4CCOC[C@@H]4C)nc(N4CCOC[C@@H]4C)nc3n2)c1` is “Active”.

What is called EC50 is the concentration giving half of the maximal effect. Low readings indicate greater potency, high ones weaker potency. For orientation: IC50 means the concentration that gives 50% inhibition.
